{"source": "patent US20260256792A1", "about": "“TREATMENT OF CHRONIC SPONTANEOUS URTICARIA BY ADMINISTERING (R)-2-[3-[4-AMINO-3-(2-FLUORO-4-PHENOXY-PHENYL)PYRAZOLO[3,4-D]PYRIMIDIN-1-YL]PIPERIDINE-1-CARBONYL]-4-METHYL-4-[4-(OXETAN-3-YL)PIPERAZIN-1-YL]PENT-2-ENENITRILE” (priority 2023, published 2026)", "tested_on": "angioedema in CSU patients", "assay": "Phase 2 CSU study: angioedema activity score over 7 days (AAS7)", "assay_type": "in vivo, human", "conditions": "400 mg BID; for AAS7 = 0, OR (95% CI) for rilzabrutinib vs. placebo / AAS7 = 0, RRD (%) for rilzabrutinib vs. placebo (95% CI) / AAS7 Post-baseline Mean (SD) / Participants with AAS7 = 0, Responder n (%) / AAS7 % Change difference for rilzabrutinib vs. placebo LS Mean (95% CI) / AAS7 % Change from baseline LS Mean (SE) / AAS7 Change difference for rilzabrutinib vs. placebo LS Mean (95% CI) / AAS7 Change from baseline LS Mean (SE) / AAS7 = 0, Non-responder n (%): angioedema at baseline; for Non-responder n (%), AAS7 = 0 / OR (95% CI) for rilzabrutinib vs. placebo, AAS7 = 0 / Responder n (%), AAS7 = 0 / RRD (%) for rilzabrutinib vs. placebo (95% CI), AAS7 = 0: outlier removed", "description": "The study comprises a 12 week, randomized, double-blind, placebo-controlled, multi-center, dose-ranging efficacy and safety phase, followed by a 40 week open label extension (OLE) phase (see FIG. 1). The study consists of three phases and an optional OLE phase. […] The weekly angioedema activity score (AAS7) was proposed as a tertiary endpoint. […] Patients were to complete the AAS using the e-diary. The e-diary was to be used once daily on the same time of each day recording of participant's answers to the angioedema activity score over 7 days (AAS7) questionnaire."}
{"smiles": "CC(C)(C=C(C#N)C(=O)N1CCC[C@@H](n2nc(-c3ccc(Oc4ccccc4)cc3F)c3c(N)ncnc32)C1)N1CCN(C2COC2)CC1", "note": "[rilzabrutinib, (R)-2-[3-[4-amino-3-(2-fluoro-4-phenoxy-phenyl)pyrazolo[3,4-d]pyrimidin-1-yl]piperidine-1-carbonyl]-4-methyl-4-[4-(oxetan-3-yl)piperazin-1-yl]pent-2-enenitrile]", "values": [{"measurement": "AAS7 = 0, OR (95% CI) for rilzabrutinib vs. placebo", "setting": "Week 4, omalizumab-naïve", "value": 2.118}, {"measurement": "AAS7 = 0, RRD (%) for rilzabrutinib vs. placebo (95% CI)", "setting": "Week 4, omalizumab-naïve", "value": 16.8, "unit": "%"}, {"measurement": "AAS7 Post-baseline Mean (SD)", "setting": "Week 4, omalizumab-naïve", "value": "14.79 (17.89)"}, {"measurement": "Participants with AAS7 = 0, Responder n (%)", "setting": "Week 4, omalizumab-naïve", "value": "11 (42.3) n (%)"}, {"measurement": "AAS7 % Change difference for rilzabrutinib vs. placebo LS Mean (95% CI)", "setting": "Week 5, ITT", "value": "−14.36 (−40.13, 11.41) %"}, {"measurement": "AAS7 % Change from baseline LS Mean (SE)", "setting": "Week 5, ITT", "value": "−68.19 (10.08) %"}, {"measurement": "AAS7 Change difference for rilzabrutinib vs. placebo LS Mean (95% CI)", "setting": "Week 5, ITT", "value": "−6.53 (−17.51, 4.44)"}, {"measurement": "AAS7 Change from baseline LS Mean (SE)", "setting": "Week 5, ITT", "value": "−36.13 (4.29)"}, {"measurement": "AAS7 Post-baseline Mean (SD)", "setting": "Week 5, ITT", "value": "12.95 (20.09)"}, {"measurement": "Non-responder n (%), AAS7 = 0", "setting": "Week 5, omalizumab-naïve", "value": "14 (40.0) n (%)"}, {"measurement": "OR (95% CI) for rilzabrutinib vs. placebo, AAS7 = 0", "setting": "Week 5, omalizumab-naïve", "value": 1.574}, {"measurement": "Responder n (%), AAS7 = 0", "setting": "Week 5, omalizumab-naïve", "value": "21 (60.0) n (%)"}, {"measurement": "AAS7 % Change difference for rilzabrutinib vs. placebo LS Mean (95% CI)", "setting": "Week 5, omalizumab-naïve", "value": "−10.97 (−38.45, 16.50) %"}, {"measurement": "AAS7 = 0, Non-responder n (%)", "setting": "Week 5, omalizumab-naïve", "value": "13 (50.0) n (%)"}, {"measurement": "AAS7 = 0, OR (95% CI) for rilzabrutinib vs. placebo", "setting": "Week 5, omalizumab-naïve", "value": 2.390}, {"measurement": "AAS7 = 0, RRD (%) for rilzabrutinib vs. placebo (95% CI)", "setting": "Week 5, omalizumab-naïve", "value": 22.3, "unit": "%"}, {"measurement": "AAS7 Post-baseline Mean (SD)", "setting": "Week 5, omalizumab-naïve", "value": "13.98 (20.55)"}, {"measurement": "Participants with AAS7 = 0, Responder n (%)", "setting": "Week 5, omalizumab-naïve", "value": "13 (50.0) n (%)"}, {"measurement": "AAS7 % Change difference for rilzabrutinib vs. placebo LS Mean (95% CI)", "setting": "Week 6, ITT", "value": "−23.55 (−50.40, 3.31) %"}, {"measurement": "AAS7 Change difference for rilzabrutinib vs. placebo LS Mean (95% CI)", "setting": "Week 6, ITT", "value": "−10.15 (−21.84, 1.54)"}, {"measurement": "AAS7 Change from baseline LS Mean (SE)", "setting": "Week 6, ITT", "value": "−36.76 (4.50)"}, {"measurement": "AAS7 Post-baseline Mean (SD)", "setting": "Week 6, ITT", "value": "12.28 (18.70)"}, {"measurement": "Non-responder n (%), AAS7 = 0", "setting": "Week 6, omalizumab-naïve", "value": "17 (48.6) n (%)"}, {"measurement": "OR (95% CI) for rilzabrutinib vs. placebo, AAS7 = 0", "setting": "Week 6, omalizumab-naïve", "value": 1.118}, {"measurement": "RRD (%) for rilzabrutinib vs. placebo (95% CI), AAS7 = 0", "setting": "Week 6, omalizumab-naïve", "value": 2.9, "unit": "%"}, {"measurement": "Responder n (%), AAS7 = 0", "setting": "Week 6, omalizumab-naïve", "value": "18 (51.4) n (%)"}, {"measurement": "AAS7 % Change difference for rilzabrutinib vs. placebo LS Mean (95% CI)", "setting": "Week 6, omalizumab-naïve", "value": "−20.62 (−49.95, 8.72) %"}, {"measurement": "AAS7 = 0, Non-responder n (%)", "setting": "Week 6, omalizumab-naïve", "value": "15 (57.7) n (%)"}, {"measurement": "AAS7 = 0, OR (95% CI) for rilzabrutinib vs. placebo", "setting": "Week 6, omalizumab-naïve", "value": 1.828}, {"measurement": "AAS7 = 0, RRD (%) for rilzabrutinib vs. placebo (95% CI)", "setting": "Week 6, omalizumab-naïve", "value": 13.6, "unit": "%"}, {"measurement": "AAS7 Post-baseline Mean (SD)", "setting": "Week 6, omalizumab-naïve", "value": "13.26 (19.12)"}, {"measurement": "Participants with AAS7 = 0, Responder n (%)", "setting": "Week 6, omalizumab-naïve", "value": "11 (42.3) n (%)"}, {"measurement": "AAS7 % Change difference for rilzabrutinib vs. placebo LS Mean (95% CI)", "setting": "Week 7, ITT", "value": "−25.42 (−54.97, 4.13) %"}, {"measurement": "AAS7 % Change from baseline LS Mean (SE)", "setting": "Week 7, ITT", "value": "−71.37 (11.45) %"}, {"measurement": "AAS7 Change from baseline LS Mean (SE)", "setting": "Week 7, ITT", "value": "−37.72 (4.37)"}, {"measurement": "AAS7 Post-baseline Mean (SD)", "setting": "Week 7, ITT", "value": "13.39 (19.19)"}, {"measurement": "Non-responder n (%), AAS7 = 0", "setting": "Week 7, omalizumab-naïve", "value": "18 (51.4) n (%)"}, {"measurement": "OR (95% CI) for rilzabrutinib vs. placebo, AAS7 = 0", "setting": "Week 7, omalizumab-naïve", "value": 1.022}, {"measurement": "RRD (%) for rilzabrutinib vs. placebo (95% CI), AAS7 = 0", "setting": "Week 7, omalizumab-naïve", "value": 0.6, "unit": "%"}, {"measurement": "Responder n (%), AAS7 = 0", "setting": "Week 7, omalizumab-naïve", "value": "17 (48.6) n (%)"}, {"measurement": "AAS7 % Change difference for rilzabrutinib vs. placebo LS Mean (95% CI)", "setting": "Week 7, omalizumab-naïve", "value": "−23.13 (−55.14, 8.88) %"}, {"measurement": "AAS7 % Change from baseline LS Mean (SE)", "setting": "Week 7, omalizumab-naïve", "value": "−70.13 (12.07) %"}, {"measurement": "AAS7 = 0, Non-responder n (%)", "setting": "Week 7, omalizumab-naïve", "value": "15 (57.7) n (%)"}, {"measurement": "AAS7 = 0, OR (95% CI) for rilzabrutinib vs. placebo", "setting": "Week 7, omalizumab-naïve", "value": 1.515}, {"measurement": "AAS7 Post-baseline Mean (SD)", "setting": "Week 7, omalizumab-naïve", "value": "14.38 (19.63)"}, {"measurement": "Participants with AAS7 = 0, Responder n (%)", "setting": "Week 7, omalizumab-naïve", "value": "11 (42.3) n (%)"}, {"measurement": "AAS7 % Change difference for rilzabrutinib vs. placebo LS Mean (95% CI)", "setting": "Week 8, ITT", "value": "−29.34 (−59.45, 0.76) %"}, {"measurement": "AAS7 % Change from baseline LS Mean (SE)", "setting": "Week 8, ITT", "value": "−81.40 (11.62) %"}, {"measurement": "AAS7 Change difference for rilzabrutinib vs. placebo LS Mean (95% CI)", "setting": "Week 8, ITT", "value": "−13.31 (−24.25, −2.37)"}, {"measurement": "AAS7 Change from baseline LS Mean (SE)", "setting": "Week 8, ITT", "value": "−41.63 (4.21)"}, {"measurement": "AAS7 Post-baseline Mean (SD)", "setting": "Week 8, ITT", "value": "9.20 (16.24)"}, {"measurement": "Non-responder n (%), AAS7 = 0", "setting": "Week 8, omalizumab-naïve", "value": "14 (40.0) n (%)"}, {"measurement": "OR (95% CI) for rilzabrutinib vs. placebo, AAS7 = 0", "setting": "Week 8, omalizumab-naïve", "value": 1.991}, {"measurement": "RRD (%) for rilzabrutinib vs. placebo (95% CI), AAS7 = 0", "setting": "Week 8, omalizumab-naïve", "value": 17.0, "unit": "%"}, {"measurement": "Responder n (%), AAS7 = 0", "setting": "Week 8, omalizumab-naïve", "value": "21 (60.0) n (%)"}, {"measurement": "AAS7 % Change difference for rilzabrutinib vs. placebo LS Mean (95% CI)", "setting": "Week 8, omalizumab-naïve", "value": "−30.39 (−63.25, 2.47) %"}, {"measurement": "AAS7 % Change from baseline LS Mean (SE)", "setting": "Week 8, omalizumab-naïve", "value": "−80.38 (12.36) %"}, {"measurement": "AAS7 = 0, Non-responder n (%)", "setting": "Week 8, omalizumab-naïve", "value": "13 (50.0) n (%)"}, {"measurement": "AAS7 = 0, OR (95% CI) for rilzabrutinib vs. placebo", "setting": "Week 8, omalizumab-naïve", "value": 2.829}]}
